{
  "source": "patent EP3952873B1",
  "about": "(priority 2019, dated 2020)",
  "key": {"mice": {"system": "mice", "assay_type": "in vivo", "settings": "100 mg/kg i.p.", "description": "To determine locomotor effects (e.g. sedation or hyperactivity) compounds were assessed after systemic administration to mice. Mice (typically n=5-8) were administered selected compounds, e.g. JON-11 and pro-JON-11 and vehicle controls, and placed in transparent cages (L: 37 cm x W: 21 cm x H: 15 cm). Locomotor activity were measured via a camera mounted above the arena. Mice will be recorded for 45 min and data collected in 5-min intervals. Data will be stored on a computer equipped with Ethovision XT (Noldus)."}, "GABAA receptors": {"system": "GABAA receptors", "assay": "Affinity for GABAA receptors", "assay_type": "binding"}, "DTA mouse model": {"system": "DTA mouse model", "assay": "DTA mouse model of narcolepsy (EEG/EMG, cataplexy)", "assay_type": "in vivo", "settings": "after 8-11 days of chronic administration, 100 mg/kg i.p.", "description": "Using the DTA mouse model (Tabuchi et al., 2014) we determined changes in sleep-wake EEG/EMG patterns (including cataplexy) at different time points (1 day and 8-11 days) under the influence of JON-11. After drug cessation day 14, EEG/EMG changes were mapped up to day 33. Under anesthesia with isoflurane (2% to 2.5% in O2) electrodes were placed in the scull and neck muscles of the mice. After 5-10 days recovery the electrodes are connected to a recording system, and EEG/EMG signals are recorded with synchronised video recordings. From the data, sleep/wake parameters and cataplexy episodes are scored and calculated. Analyses were performed by an observer blinded to the treatment groups."}, "[1]": {"assay_type": "in vitro ADME, mouse", "settings": "during the metabolic stability study", "description": "Metabolic stability analysis was performed on a Bruker Avance Ultra High Performance Liquid Chromatography (UHPLC) (Bruker Daltonik, Bremen, Germany) equipped with a CTC-PAL-xt autosampler with cooled sample compartments (10 °C) and a column oven held at 40 °C. The UHPLC eluate was directed to a Bruker Evoq Elite triple quad-ropole MS equipped with a heated electrospray ionization source operated in positive ionization mode. Separation of 15 µL sample was obtained using a Phenomenex (Phenomenex, Torrance, CA, USA) Kinetex XB-C18 column (50 mm × 2.1 mm i.d., 1.7 µm particle size) equipped with a guard column. The analytes were separated using a solvent system consisting of water/acetonitrile (95:5, v/v) (eluent A) and water/acetonitrile (5:95, v/v) (eluent B); both acidified with 0.1% formic acid. The eluent flow rate was maintained at 0.4 mL/min with the following gradient elution profile: 0 min: 0% B; 5 min: 100% B; 6 min: 100% B, followed by three min equilibration at 0% B. Two ion transitions were monitored for all analytes and internal standard.\nThe mouse liver microsome assay was performed by transferring 25 µL of a 20 µM solution of the test compound (0.5% DMSO), dissolved in potassium phosphate monobasic buffer (pH 7.4) containing 3 mM MgCl2, to 9 wells in a microtiter plate. To each well, […] of a 0.5 mg/mL mouse liver (Sigma Aldrich) in buffer was added, and the microtiter plate were pre-incubated for 5 min at 37 °C in a plate shaker at 600 rpm. After pre-incubation, 50 µL 37 °C NADPH regenerating system, consisting of 2 mM NADP+, 10mM glucose-6-phosphate, and 2 U/mL glucose-6-phosphate dehydrogenase dissolved in buffer, was added to start the assay. In triplicates, immediately after adding the NADPH solution, 75 µL was transferred to an Eppendorf tube, containing […] ice-cold acetonitrile with 400 ng/mL internal standard (7). Similarly, samples were prepared after 30 min and 60 min incubation at 37 °C. The samples were vortexed for 30 seconds and centrifuged at 16,000 × g for 10 minutes before analyzing the supernatant. The individual analyte responses were normalized to the internal standard. Diazepam was used as positive control.\nThe mouse […] assay was performed by transferring 75 µL of a 10 µM solution of the test compound (0.5% DMSO), dissolved in PBS buffer (pH 7.4), to 9 wells in a microtiter plate. To each well, 75 µL mouse plasma, harvested from in-house mice into K2-EDTA tubes and centrifuged at 1,600 × g, was added. […]\nThe metabolic stabilities of JON-11 and the prodrugs 1a, 8-12, 19 and 20 were determined in vitro in rat plasma and rat liver microsomes. […] The corresponding loss of prodrug compounds and formation of parent drug JON-11 was determined by UHPLC-MS."}, "[2]": {"molecular_target": "T1, GHB high-affinity binding site/CaMK2a (Rattus norvegicus, UniProt P11275)", "T1 construct": "rat (Sprague-Dawley) cortical synaptic membranes (P2 synaptosomes) were prepared; from tissue; host or cells: rat (Sprague-Dawley) cortical synaptic membranes (P2 synaptosomes)", "T1 sequence (P11275 whole entry)": "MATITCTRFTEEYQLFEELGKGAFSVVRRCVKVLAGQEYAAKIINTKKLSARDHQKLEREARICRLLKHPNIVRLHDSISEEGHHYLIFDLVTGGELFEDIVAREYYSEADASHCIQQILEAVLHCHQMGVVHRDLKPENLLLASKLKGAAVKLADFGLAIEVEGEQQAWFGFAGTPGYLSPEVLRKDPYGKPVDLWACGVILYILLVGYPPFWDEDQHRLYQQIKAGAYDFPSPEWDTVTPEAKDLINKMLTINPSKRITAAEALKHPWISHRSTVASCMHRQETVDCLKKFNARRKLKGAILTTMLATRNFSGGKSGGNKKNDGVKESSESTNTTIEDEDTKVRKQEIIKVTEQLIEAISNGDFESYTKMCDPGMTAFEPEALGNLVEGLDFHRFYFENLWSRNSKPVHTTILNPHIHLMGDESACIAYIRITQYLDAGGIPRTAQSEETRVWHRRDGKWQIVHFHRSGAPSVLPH", "assay": "Rat brain membrane [3H]NCS-382 binding assay", "settings": "16 nM [3H]NCS-382, rat cortical synaptic membranes, pH 6.0, 0-4 °C", "description": "According to previously published protocols, rat (Sprague-Dawley) cortical synaptic membranes (P2 synaptosomes) were prepared and stored at -20 °C until the day of assay (Wellendorph et al., 2005). Membranes were then washed three times with binding buffer (50 mM potassium phosphate buffer pH 6.0). The binding protocol was performed in 96-well microplates. In brief, compounds were incubated with 16 nM [^3H]NCS-382 radioligand and membranes for 60 min at 0-4 °C, filtered through GF/C filter plates (PerkinElmer) using a 96-well harvester (Packard), rapidly washed three times with ice-cold binding buffer, and filter plates dried. CPM values were determined using liquid scintillation counting in a TopCount NXT Microplate Scintillation & Luminescence Counter (PerkinElmer). Curves were generated using non-linear regression (GraphPad Prism 7, GraphPad Prism Software, San Diego, CA, USA).\nJON-11, related analogues, and pro-JON-11(10) were tested in the [^3H]NCS-382 binding assay (Wellendorph et al., 2005)."}, "recombinant CaMK2a": {"molecular_target": "T2, recombinant CaMK2a (Rattus norvegicus, UniProt P11275)", "T2 construct": "host or cells: HEK293T", "T2 sequence (P11275 whole entry)": "as above", "assay": "[3H]HOCPCA binding to recombinant CaMK2a expressed in HEK293T cells", "description": "Protein concentration was determined using the Bradford protein assay. […] The dried filters were added scintillation liquid and radioactivity measured on a Tricarb 2100 Scintillation counter (Packard)."}},
  "data": [
    {"smiles": "O=C(O)Cc1cn2nc(-c3ccc(Cl)cc3)ccc2n1", "note": "[JON-11, 2-(6-(4-Chlorophenyl)imidazo[1,2-b]pyridazin-2-yl)acetic acid]", "values": [
      {"measurement": "locomotor activity", "setting": "mice", "result": "does not affect locomotor activity"},
      {"measurement": "affinity for GABAA receptors", "setting": "GABAA receptors", "result": "weak affinity"},
      {"measurement": "number of cataplexy attacks", "setting": "DTA mouse model", "result": "significantly decreases"},
      {"measurement": "Chemical or enzymatic degradation", "setting": "[1]", "result": "not observed"},
      {"measurement": "Ki", "setting": "[2]", "result": 220, "unit": "nM"},
      {"measurement": "Ki", "setting": "recombinant CaMK2a; 5 nM [3H]HOCPCA, whole cell lysates of CaMK2a-transfected HEK293T cells", "result": 3500, "unit": "nM"},
      {"measurement": "higher affinity compared to GHB", "setting": "recombinant CaMK2a; ratio of Ki values, [3H]HOCPCA binding", "result": 14, "unit": "x"}
    ]}
  ]
}
